Experimental data reported in patent US10010536B2, “Method of modulating stress-activated protein kinase system” (InterMune, Inc., priority 2005, dated 2018).

How the values were obtained:
[1] = test system: TNFα release from THP-1 cells stimulated with lipopolysaccharide (LPS); experiment: Inhibition of TNFα release from THP-1 cells stimulated with lipopolysaccharide (LPS); assay type: cell-based; design: key to TNF EC50: A: ≤2,000; B: >2,000; C: Inconclusive (e.g., no data or no activity observed); details: for EC50: Homo sapiens, read-out: TNF EC50
Protocol: Compounds are screened for the ability to inhibit TNFα release from THP-1 cells stimulated with lipopolysaccharide (LPS) in vitro. The ability of compounds to inhibit TNFα release in this in vitro assay is correlated with the inhibition of p38 activity and TNFα, and is therefore an indicator of potential in vivo therapeutic activity (Lee J. C. et al. 1993 Ann. N.Y. Acad. Sci. 696:149-170; and 1994 Nature 372:739-746).
THP-I cells from ATCC (TIB202) are maintained at 37° C., 5% CO2 in RPMI 1640 media (MediaTech, Herndon, Va.) containing 4.5 g/L glucose, supplemented with 10% fetal bovine serum, 1% penicillin/streptomycin and 50 μM β-mercaptoethanol.
Test compounds are initially dissolved in RPMI media with 1% DMSO (v/v). Compounds are then serially diluted in RPMI media for all subsequent dilutions. The assay is performed under sterile conditions. THP-1 cells at a culture density of 6-8×10^5 cells/ml are collected and resuspended in the RPMI media at 10^6 cells/ml. 100 μl of resuspended cells are added to each well, which contain 100 μl of a test compound. Test compounds are prepared at twice the final concentration. Final DMSO concentration is no more than 0.5% (v/v). Cells are preincubated with compound for 60 minutes at 37° C., 5% CO2 prior to stimulation with lipopolysaccharide (LPS) (Sigma L-2880, 4 mg/ml stock in PBS). The final LPS concentration in each well is […] for TNFα and IL-1β release, respectively. Unstimulated control cell suspensions receive PBS vehicle only. Cell mixtures are incubated for 18 or 48 hours for TNFα and IL-1β release, respectively. 150 μl of supernatants are taken and transferred to a fresh plate and stored at −20° C. until farther analysis. TNFα and IL-1β levels are measured using ELISA kits. A Luminescence is used as the plate reader. Analysis is performed by non-linear regression to generate a dose response curve.

THP-1 cells = experiment: Compound toxicity testing in a cell based assay (LDH release, ATP and/or MTT assay); details: given as concentration
Protocol: The release of LDH as result of a disrupted cell membrane is applied as a measure of cell toxicity. […] THP-1 cells are used for determination of cell toxicity for consistency with the induced TNFα expression in the previous experiment. […] The compounds are added at different concentrations in triplicate. The appropriate solvent control is used in each assay. After compound addition the cells are cultured 18 hours under regular tissue culture conditions. After this incubation period, the positive control is initiated by adding Triton-X-100 (2% v/v) to untreated cells and incubated for an additional 10 minutes for complete cell lysis. Subsequently the cells are sedimented by centrifugation and a fraction of the supernatant removed and analyzed for LDH enzyme activity according to the manufacturer's instructions. The data is typically reported as % cell toxicity normalized to the Triton-X-100 lysed cells as 100% cell toxicity.
Toxicity data are also obtained using a commercially available ATP assay (Molecular Probes' ATP Determination Kit A22066, available from Invitrogen) and/or using a MTT assay. Both the ATP and the MTT assays measure metabolic competence of the cell. The MTT assay measures the ability of the cell to reduce a marker substrate, which is related to metabolic competence (i.e. viability). The ATP assay measures the cellular ATP concentration in the presence and absence of compound. Toxic compounds lead to reduced metabolic activity which leads to a reduction in ATP concentration.

[2] = Pharmacokinetic properties in dual canulated Sprague Dawley rats; assay type: in vivo; design: Clobs: unit not given here; details: rat; for AUC(0-t) / MRT inf / half-life: male, Sprague Dawley, plasma
Protocol: The pharmacokinetic (PK) properties of pirfenidone, pirfenidone analogs and derivatives were assessed in dual canulated (right jugular/left carotid) Sprague Dawley rats (Charles River Laboratories, Inc., Wilmington, Mass.). Male rats weighing approximately 275-300 g were administered an intravenous (5 mg/Kg) or oral (50 mg/Kg via gavage) dose of compound in an appropriate formulation. Plasma samples were collected via intra-arterial canula at desired times in the 24 hours after dosing using EDTA as an anticoagulant. Three animals were used for each compound. All experiments were conducted by trained personnel in accordance with guidelines of the appropriate Institutional Animal Care and Use Committees (IACUC). Compound concentrations were assessed by LC-MS using a MDS SCIEX API 3000 mass spectrometer (Applied Biosystems, Foster City, Calif.) coupled to a Shimadzu VP HPLC (Shimadzu Corp., Kyoto, Japan) outfitted with a Duragel G C18 guard cartridge (Peeke Scientific, Redwood City, Calif.). Calibration samples were prepared by mixing known amounts of pirfenidone, or a pirfenidone analog or derivative, with rat plasma. A standard curve was created by serial dilution of the calibration sample in the same matrix. Both standard and analytical samples were prepared for injection to the HPLC by mixing an aliquot of plasma sample with 3 volumes of ice cold acetonitrile containing internal standard. Samples were then centrifuged. An aliquot of the resulting supernatant was then mixed with five volumes of 0.2% formic acid in water, injected to the HPLC, and resolved in a methanol gradient (containing 0.18-0.2% formic acid). The integrated analyte signal was corrected for that of the internal standard and compared to the appropriate standard curve in order to define the analyte concentration. The pharmacokinetic parameters shown in Table 4 were derived using the WinNonlin Software package (Pharsight Corp, Mountain View, Calif.).

HFL-1 Cells = experiment: Effect of compounds on TGF-β-induced collagen production in HFL-1 cells (Sircol collagen assay); assay type: cell-based; details: Homo sapiens, HFL1, 72 h, compound 1 mM, TGF-β1 10 ng/mL, three days, read-out: % Inhibition of TGF-β Stimulated Collagen Synthesis
Protocol: HFL-1 Cells (ATCC, Rockville, Md.) were grown under regular tissue culture conditions in complete media containing 10% fetal bovine serum (FBS; Mediatech, Inc., Herndon, Va.). Cells in early passage were plated in 6 well plates. When the cells reached confluence, the media was removed, cells washed with PBS, and the cells were kept overnight in complete media containing 0.1% FBS. The media was then replaced with fresh media plus 0.1% FCS, 10 μM L-Proline (EMD Chemicals, Gibbstown, N.J.), 20 μg/mL ascorbic acid (EMD Chemicals, Gibbstown, N.J.). Compounds were added to triplicate wells to a final concentration of 1 mM from 100× stock solutions in DMSO. One hour after the addition of compound, the cells were treated with TGF-β1 (Sigma-Aldrich, St. Louis, Mo.) to a final concentration of 10 ng/mL (25 ng total). Three days after addition of TGF-β, the media was removed, cells were washed with PBS and then lysed. The total collagen content of lysed cells was assessed with a dye-based collagen assay (Sircol Collagen Assay, Newtownabbey, Northern Ireland) and a μQuant plate-based spectrophotometer (BioTek Insturments, Inc., Winooski, Vt.) with appropriate standard curves. The dynamic range of the assay is defined by cells that were mock treated (1% DMSO without compound) in the presence and absence of TGF-β.

| Structure (SMILES) | EC50 [1] [mM] | TNF EC50 [1] | other results |
| --- | --- | --- | --- |
| O=c1ccc(CO)cn1-c1ccccc1 [Compound 1] | > 2 |  |  |
| O=C(O)c1ccc(=O)n(-c2ccccc2)c1 [Compound 2] |  | C |  |
| Cc1cc(O)c(=O)n(-c2ccccc2)c1 [Compound 4] | ≤ 2 |  | Toxicity (THP-1 cells): ≥1 mM |
| Cc1ccc(=O)n(-c2ccc(O)cc2)c1 [Compound 5] | ≤ 2 |  | Toxicity (THP-1 cells): ≥1 mM |
| COCc1ccc(=O)n(-c2ccccc2)c1 [Compound 6] | ≤ 2 |  | Toxicity (THP-1 cells): ≥1 mM |
| O=c1ccccn1-c1ccccc1 [Compound 7] | > 2 |  |  |
| O=c1ccc(C(F)(F)F)cn1-c1ccccc1 [Compound 8] | > 2 |  | AUC(0-t) ([2]; IV, 5 mg/kg): 30200 ng·h/mL; MRT inf ([2]; IV, 5 mg/kg): 20.3 h; half-life ([2]; IV, 5 mg/kg): 13.9 h; AUC(0-t) ([2]; Oral, 50 mg/kg): 122000 ng·h/mL; Clobs ([2]; IV, 5 mg/kg): 0.117; E ([2]; Oral, 50 mg/kg): 40.5%; inhibition at 1000 µM (HFL-1 Cells): 48% |
| O=c1ccccn1-c1ccc(O)cc1 [Compound 9] |  | C |  |
| O=c1ccc(C(F)(F)F)cn1-c1ccc(O)cc1 [Compound 10, 1-(4-hydroxyphenyl)-5-(trifloromethyl)-2-pyridone] | ≤ 2 |  |  |
| O=c1ccccn1-c1ccc(F)cc1 [Compound 11] | > 2 |  |  |
| O=c1ccc(C(F)(F)F)cn1-c1ccc(F)cc1 [Compound 12] |  | C |  |
| Cc1ccc(=O)n(-c2ccccc2)c1 [Compound 13, 5-methyl-1-phenyl-2-(1H)-pyridone, reference compound] | ≤ 2 |  | Toxicity (THP-1 cells): ≥1 mM |
| Cc1ccc(=O)n(-c2ccc(F)cc2)c1 [Compound 14] | > 2 |  | inhibition at 1000 µM (HFL-1 Cells): 23% |
| COc1ccc(-n2cc(C(F)(F)F)ccc2=O)cc1 [Compound 15] |  | C | inhibition at 1000 µM (HFL-1 Cells): 49% |
| CC(=O)c1ccc(=O)n(-c2ccccc2)c1 [Compound 16, 1-phenyl-5-acetyl-2-pyridone] |  | C |  |
| O=c1ccc(-c2ccccc2)cn1-c1ccccc1 [Compound 17] |  | C |  |
| Cc1ccc(=S)n(-c2ccccc2)c1 [Compound 18, 1-phenyl-5-methyl-2-pyridinethione] |  | C |  |
| O=c1ccc(C(F)F)cn1-c1ccccc1 [Compound 19] |  |  | AUC(0-t) ([2]; IV, 5 mg/kg): 35000 ng·h/mL; MRT inf ([2]; IV, 5 mg/kg): 6.26 h; half-life ([2]; IV, 5 mg/kg): 2.96 h; AUC(0-t) ([2]; Oral, 50 mg/kg): 192000 ng·h/mL; Clobs ([2]; IV, 5 mg/kg): 0.142; E ([2]; Oral, 50 mg/kg): 54.8% |
| COC(=O)c1ccc(=O)n(-c2ccccc2)c1 [Compound 24] |  | C |  |
| Cc1ccc(=O)n(-c2cc[n+](C)cc2)c1 [Compound 25] | > 2 |  |  |
| O=c1ccc(Br)cn1-c1ccccc1 [Compound 26] | ≤ 2 |  | AUC(0-t) ([2]; IV, 5 mg/kg): 10300 ng·h/mL; MRT inf ([2]; IV, 5 mg/kg): 2.4 h; half-life ([2]; IV, 5 mg/kg): 1.62 h; AUC(0-t) ([2]; Oral, 50 mg/kg): 65800 ng·h/mL; Clobs ([2]; IV, 5 mg/kg): 0.691; E ([2]; Oral, 50 mg/kg): 63.9%; inhibition at 1000 µM (HFL-1 Cells): 58% |
| COc1ccc(-n2cc(Br)ccc2=O)cc1 [Compound 27] | ≤ 2 |  |  |
| O=c1ccc(CF)cn1-c1ccc(O)cc1 [Compound 28] |  | C |  |
| O=c1ccc(C(F)F)cn1-c1ccc(O)cc1 [Compound 29] |  | C |  |
| O=c1ccc(Br)cn1-c1ccc(O)cc1 [Compound 30] | ≤ 2 |  | inhibition at 1000 µM (HFL-1 Cells): 69% |
| COc1ccc(-n2cc(CF)ccc2=O)cc1 [Compound 31] | ≤ 2 |  |  |
| COc1ccc(-n2cc(C(F)F)ccc2=O)cc1 [Compound 32] | ≤ 2 |  |  |
| O=c1ccc2cc(Br)ccc2n1-c1ccccc1 [Compound 33] |  | C |  |
